The source of these data is the CATMoS acute toxicity set (Mansouri et al. 2021).

This series in a line: rat acute oral toxicity. Conditions: in vivo.

Values joined by “and” are separate entries in the source; they are usually repeats but may differ in a detail not shown here. Identical values can stand only once.

The term LD50 denotes the dose at which mortality reaches 50%. High values mean a less toxic substance, low ones a more toxic substance. For `O=[N+]([O-])c1cccc(O)c1`, the LD50 turned out to be 328 mg/kg.

In turn, `Cc1cc(O)ccc1Cl` came in with an LD50 of 1830 mg/kg.

Consider `CC(=O)c1cc2c(cc1C)C(C)(C)C(C)CC2(C)C` (centres undefined), for which the LD50 stood at 920 mg/kg.

In turn, `ClC(Cl)=C(Cl)Cl` displayed an LD50 of 2630 mg/kg.

In turn, `CN(C)C(CSC(N)=O)CSC(N)=O` showed an LD50 of 340 mg/kg.

Compound `CCOP(=S)(Oc1ccc([N+](=O)[O-])cc1)c1ccccc1` (centres undefined) displayed an LD50 of 7 mg/kg.

For the compound `CCN(CC)C(=O)N1CCN(C)CC1`, the LD50 worked out at 1380 mg/kg.

On to `CC(O)CCO` (centres undefined), for which the LD50 amounted to 18600 mg/kg.

In the case of `CC(=O)CC(c1ccccc1)c1c(O)c2ccccc2oc1=O` (centres undefined), the LD50 is 1.6 mg/kg.

In turn, `Cc1ccccc1C` registered an LD50 of 3520 mg/kg.

With `OC(c1ccc(Cl)cc1)(c1ccc(Cl)cc1)C(Cl)(Cl)Cl`, the LD50 was 575 mg/kg.

As to `CN(C)CCC=C1c2ccccc2CCc2ccccc21`, the LD50 amounted to 280 mg/kg.

Compound `ClCc1ccccc1` displayed an LD50 of 440 mg/kg.

Consider `ClC(Cl)(Cl)c1ccccc1`, for which the LD50 came to 1590 mg/kg.

With `CC(C)=O`, the LD50 was 5800 mg/kg.

Compound `COP(=S)(OC)Oc1ccc(Sc2ccc(OP(=S)(OC)OC)cc2)cc1` came in with a 50% lethal dose (LD50) of 444 mg/kg.

As for `C=C(C)C(=O)OCCN=C=O`, the LD50 amounted to 670 mg/kg.

`CC(C)(C)C(=O)O`: the LD50 amounted to 900 mg/kg.

On to `O=C(OCCOCCOC(=O)c1ccccc1)c1ccccc1`, for which the LD50 came to 2830 mg/kg.

As to `COc1nc(NC(C)C)nc(NC(C)C)n1`, the LD50 was 503 mg/kg.

`C=CC[N+](C)(C)CC=C` yielded an LD50 of 2520 mg/kg.

Turning to `CC1(C)COCN1`, the LD50 was determined as 950 mg/kg.

As to `CCCC(C)=O`, the LD50 was determined as 1600 mg/kg.

On to `O=Cc1ccccc1`, for which the LD50 came to 1300 mg/kg.

`ClSC(Cl)(Cl)Cl` yielded an LD50 of 82.6 mg/kg.

`C[C@H]1OC(=O)[C@@H](C)OC1=O` displayed an LD50 of 3540 mg/kg.

Take `CCNc1nc(Cl)nc(NC(C)(C)C)n1`: the LD50 turned out to be 1500 mg/kg.

With `CC1(C)C(C=C(Cl)Cl)C1C(=O)OCc1cccc(Oc2ccccc2)c1` (centres undefined), the LD50 amounted to 406 mg/kg.

Compound `O=S(=O)(O)OCCOc1ccc(Cl)cc1Cl` had an LD50 of 480 mg/kg.

As for `CC(O)COC(C)CO` (centres undefined), the LD50 was determined as 2280 mg/kg.

Regarding `N=C(N)N`, the LD50 is 475 mg/kg and 730 mg/kg.

Take `Cc1ccc2nc(-c3ccc(N)cc3)sc2c1`: the LD50 stood at 5650 mg/kg.

Compound `O=C(Nc1ccc(Cl)c(Cl)c1)Nc1cc(Cl)ccc1Oc1ccc(Cl)cc1S(=O)(=O)O` registered a 50% lethal dose (LD50) of 476 mg/kg.

`CN(C)CCN(C)C` gave an LD50 of 268 mg/kg.

`NC(=S)Nc1cccc2ccccc12` gave an LD50 of 3 mg/kg.

Turning to `c1ccc2[nH]c(-c3cscn3)nc2c1`, the LD50 came to 2080 mg/kg.

`CCCCCCCCCCCCCCCCCC[N+](C)(C)CCCCCCCCCCCCCCCCCC` registered an LD50 of 11300 mg/kg.

For `CCNP(=S)(OC)O/C(C)=C/C(=O)OC(C)C` (centres undefined), the LD50 was determined as 59.5 mg/kg.

As to `CC(C)(C)OOC(=O)c1ccccc1`, the LD50 came out at 1010 mg/kg.

In the case of `c1ccc(OCC2CO2)cc1` (centres undefined), the LD50 was 2500 mg/kg.

For the compound `C=C(Cl)Cl`, the LD50 was found to be 80 mg/kg.

Compound `Cc1nc(N(C)C)nc(OC(=O)N(C)C)c1C` came in with an LD50 of 100 mg/kg.

`CC(=O)CC(C)(C)O`: the LD50 came out at 2520 mg/kg.

Take `O=C1O[B-]2(OC1=O)OC(=O)C(=O)O2`: the LD50 was determined as 175 mg/kg.

In turn, `CCCCCCCCCCCCCCCCCCN` came in with an LD50 of 1000 mg/kg.

In the case of `C#CC(C)(C)NC(=O)c1cc(Cl)cc(Cl)c1`, the median lethal dose (LD50) was 3350 mg/kg.

`COP(=S)(OC)Oc1ccc(C#N)cc1`: the LD50 was determined as 580 mg/kg.

As to `CC(C)c1ccc(-c2ccccc2)cc1`, the LD50 is 4570 mg/kg.

With `O=C(O)c1ccccc1O`, the LD50 is 930 mg/kg and 891 mg/kg.

`N#CCC#N` registered an LD50 of 14 mg/kg.

`CCN(CC)N=O`: the LD50 was 220 mg/kg.

For `CN(C)C=O`, the LD50 was 3000 mg/kg.

`NCC1CCCC(CN)C1` (centres undefined): the LD50 amounted to 880 mg/kg.

`CNC(=O)CC#N` came in with an LD50 of 387 mg/kg.

The compound `CCCCCCCCC=CCCCCCCCC1=NCCN1CCO` showed an LD50 of 1000 mg/kg.

For the compound `CC[Si](Cl)(Cl)Cl`, the LD50 came out at 800 mg/kg.

Compound `C=CC(=O)OCCOC` yielded an LD50 of 404 mg/kg.

In turn, `N#C[N-2]` came in with an LD50 of 158 mg/kg.

`C=CC1CC=CCC1` (centres undefined): the LD50 was 1600 mg/kg.

In turn, `C=COCCCl` displayed an LD50 of 210 mg/kg.

The compound `CCCCSP(SCCCC)SCCCC` displayed an LD50 of 910 mg/kg.

In turn, `CC(C)c1nn(C(=O)NC(C)(C)C)c(=O)n1N` had an LD50 of 1020 mg/kg.

`CC(C)C(=O)O` came in with an LD50 of 266 mg/kg.

In turn, `CCCCNC(=O)OCC#CI` came in with an LD50 of 1100 mg/kg.

`O=C(O)COc1nc(Cl)c(Cl)cc1Cl` came in with a median lethal dose (LD50) of 630 mg/kg.

`CN(C)c1nc(=O)n(C2CCCCC2)c(=O)n1C` returned an LD50 of 1200 mg/kg.

For `Clc1cccc(Cl)c1Cl`, the median lethal dose (LD50) is 756 mg/kg.

Compound `C/C(=N\NC(=O)Nc1cc(F)cc(F)c1)c1ncccc1C(=O)O` returned an LD50 of 3300 mg/kg.

`Oc1ccccc1Cl` returned an LD50 of 40 mg/kg.
